Test results taken from ChEMBL document CHEMBL4602664, “Chrysosporazines F-M: P-Glycoprotein Inhibitory Phenylpropanoid Piperazines from an Australian Marine Fish Derived Fungus, Chrysosporium sp. CMB-F294” (J Nat Prod, 2020).

What was measured:
Staphylococcus aureus = experiment: Antibacterial activity against Staphylococcus aureus ATCC 25923 assessed as reduction in microbial growth after 24 hrs by spectrophotometric method; assay type: functional, organism-based; settings: ATCC 25923, 24 h
Escherichia coli = experiment: Antibacterial activity against Escherichia coli ATCC 11775 assessed as reduction in microbial growth after 24 hrs by spectrophotometric method; assay type: functional, organism-based; settings: ATCC 11775, 24 h
Candida albicans = experiment: Antifungal activity against Candida albicans ATCC 10231 assessed as reduction in microbial growth after 48 hrs by spectrophotometric method; assay type: functional, organism-based; settings: ATCC 10231, 48 h
SW-620 = experiment: Antiproliferative activity against human SW620 cells assessed as reduction in cell viability after 48 hrs by MTT assay; assay type: functional, cell-based; settings: SW-620, 48 h
SW620/AD300 = experiment: Antiproliferative activity against human SW620/AD300 cells assessed as reduction in cell viability after 48 hrs by MTT assay; assay type: functional, cell-based; settings: SW620/AD300, 48 h

| IC50 (SW-620) [µM] | IC50 (SW620/AD300) [µM] | SMILES | IC50 (Staphylococcus aureus) [µM] | IC50 (Escherichia coli) [µM] | IC50 (Candida albicans) [µM] |
| --- | --- | --- | --- | --- | --- |
| > 30 |  | COc1c2c(cc3c1[C@H](c1ccccc1)[C@H]1C(=O)N4C[C@H](Cc5ccccc5)N(C(C)=O)C[C@@H]4[C@@H]31)OCO2 | > 30 | > 30 | > 30 |
| > 30 |  | COc1cc(C[C@H]2CN3C(=O)/C(=C/c4ccccc4)[C@H](c4cc(OC)c5c(c4)OCO5)[C@H]3CN2C(C)=O)cc2c1OCO2 | > 30 | > 30 | > 30 |
| > 30 |  | COc1cc([C@H]2/C(=C\c3ccccc3)C(=O)N3C[C@H](Cc4ccccc4)N(C(C)=O)C[C@H]23)cc2c1OCO2 | > 30 | > 30 | > 30 |
| > 30 |  | COc1cc(C[C@H]2CN3C[C@@H]4[C@@H](c5ccccc5)c5c(cc6c(c5OC)OCO6)[C@@H]4[C@H]3CN2C(C)=O)cc2c1OCO2 | > 30 | > 30 | > 30 |
| > 30 |  | COc1cc([C@@H]2[C@H]3CN(C(C)=O)[C@@H](Cc4ccccc4)CN3C(=O)[C@@]23O[C@H]3c2ccccc2)cc2c1OCO2 | > 30 | > 30 | > 30 |
| > 30 |  | COc1c2c(cc3c1[C@H](c1ccccc1)[C@@]1(O)C(=O)N4C[C@H](Cc5ccccc5)N(C(C)=O)C[C@@H]4[C@@H]31)OCO2 | > 30 | > 30 | > 30 |
| > 30 |  | COc1cc(C[C@H]2CN3C(=O)[C@@]4(O[C@H]4c4ccccc4)[C@H](c4cc(OC)c5c(c4)OCO5)[C@H]3CN2C(C)=O)cc2c1OCO2 | > 30 | > 30 | > 30 |
| > 30 |  | COc1cc(C[C@H]2CN3C[C@]4(O)[C@@H](c5ccccc5)c5c(cc6c(c5OC)OCO6)[C@@H]4[C@H]3CN2C(C)=O)cc2c1OCO2 | > 30 | > 30 | > 30 |
|  | > 30 | COc1ccc(CCN(C)CCCC(C#N)(c2ccc(OC)c(OC)c2)C(C)C)cc1OC (stereo not given) |  |  |  |
| 0.11 | 4.9 | COc1cccc2c1C(=O)c1c(O)c3c(c(O)c1C2=O)C[C@@](O)(C(=O)CO)C[C@@H]3O[C@H]1C[C@H](N)[C@H](O)[C@H](C)O1 [DOXORUBICIN] |  |  |  |
